Laboratory results reported in the NIST ThermoML archive (doi:10.1021/acs.jced.5b00796).
Numbers after ± are expanded uncertainties.

Details: Liquid, Ebulliometric method (Recirculating still)

Row | SMILES | vapor or sublimation pressure (354.25 K) | vapor or sublimation pressure (337.85 K)
1 | CC#N [acetonitrile] | 101.32 ± 1 kPa | –
2 | CO [methanol] | – | 101.32 ± 1 kPa
